Where “and” joins values, the source holds several entries; their conditions need not be identical. Equal values may be shown once. ± gives the expanded uncertainty stated by the source.
Test: molar heat capacity at constant pressure
Details: 101.33 kPa, Small (less than 1 g) adiabatic calorimetry

CC(C)(C)c1ccc(Oc2ccccc2)cc1 [4-tert-butylphenyl phenyl ether]
molar heat capacity at constant pressure
Details | Crystal | Liquid
120 K | 144.42 ± 0.67 J/K/mol | –
120.73 K | 145 ± 0.83 J/K/mol | –
121.96 K | 146.09 ± 0.83 J/K/mol | –
123.18 K | 147.08 ± 0.83 J/K/mol | –
124.42 K | 148.25 ± 0.83 J/K/mol | –
125.65 K | 149.33 ± 0.83 J/K/mol | –
126.9 K | 150.41 ± 0.83 J/K/mol | –
128.13 K | 151.57 ± 0.83 J/K/mol | –
129.37 K | 152.57 ± 0.83 J/K/mol | –
130 K | 153.32 ± 0.75 J/K/mol | –
130.6 K | 153.82 ± 0.83 J/K/mol | –
131.84 K | 154.9 ± 0.83 J/K/mol | –
133.08 K | 155.9 ± 0.83 J/K/mol | –
134.32 K | 157.23 ± 0.83 J/K/mol | –
135.56 K | 158.22 ± 0.83 J/K/mol | –
136.81 K | 159.31 ± 0.83 J/K/mol | –
138.05 K | 160.3 ± 0.91 J/K/mol | –
139.3 K | 161.47 ± 0.91 J/K/mol | –
140 K | 161.97 ± 0.75 J/K/mol | –
140.55 K | 162.46 ± 0.91 J/K/mol | –
141.8 K | 163.38 ± 0.91 J/K/mol | –
143.04 K | 164.54 ± 0.91 J/K/mol | –
144.3 K | 165.79 ± 0.91 J/K/mol | –
145.55 K | 166.71 ± 0.91 J/K/mol | –
146.83 K | 167.95 ± 0.91 J/K/mol | –
148.09 K | 169.12 ± 0.91 J/K/mol | –
149.35 K | 169.95 ± 0.91 J/K/mol | –
150 K | 170.61 ± 0.75 J/K/mol | –
150.61 K | 171.11 ± 0.91 J/K/mol | –
151.87 K | 172.28 ± 0.91 J/K/mol | –
153.13 K | 173.44 ± 0.91 J/K/mol | –
154.39 K | 174.44 ± 0.91 J/K/mol | –
155.66 K | 175.27 ± 0.91 J/K/mol | –
156.93 K | 176.43 ± 0.91 J/K/mol | –
158.2 K | 177.6 ± 1 J/K/mol | –
159.47 K | 178.43 ± 1 J/K/mol | –
160 K | 179.01 ± 0.75 J/K/mol | –
160.74 K | 179.34 ± 1 J/K/mol | –
162.02 K | 180.67 ± 1 J/K/mol | –
163.29 K | 181.92 ± 1 J/K/mol | –
164.57 K | 182.92 ± 1 J/K/mol | –
165.84 K | 184.08 ± 1 J/K/mol | –
167.17 K | 185.33 ± 1 J/K/mol | –
168.45 K | 186.16 ± 1 J/K/mol | –
169.73 K | 187.16 ± 1 J/K/mol | –
170 K | 187.41 ± 0.83 J/K/mol | –
171.02 K | 188.24 ± 1 J/K/mol | –
172.31 K | 189.4 ± 1 J/K/mol | –
173.6 K | 190.48 ± 1 J/K/mol | –
174.89 K | 191.57 ± 1 J/K/mol | –
176.18 K | 192.9 ± 1 J/K/mol | –
177.47 K | 193.64 ± 1 J/K/mol | –
178.77 K | 194.81 ± 1.1 J/K/mol | –
180 K | 195.72 ± 0.83 J/K/mol | –
180.07 K | 195.97 ± 1.1 J/K/mol | –
181.37 K | 197.05 ± 1.1 J/K/mol | –
183.98 K | 199.21 ± 1.1 J/K/mol | –
185.29 K | 200.46 ± 1.1 J/K/mol | –
186.59 K | 201.63 ± 1.1 J/K/mol | –
187.96 K | 202.71 ± 1.1 J/K/mol | –
189.28 K | 203.54 ± 1.1 J/K/mol | –
190 K | 204.12 ± 0.83 J/K/mol | –
190.59 K | 204.62 ± 1.1 J/K/mol | –
191.9 K | 205.95 ± 1.1 J/K/mol | –
193.22 K | 207.03 ± 1.1 J/K/mol | –
194.54 K | 208.28 ± 1.1 J/K/mol | –
195.86 K | 209.36 ± 1.1 J/K/mol | –
197.19 K | 210.52 ± 1.1 J/K/mol | –
198.51 K | 211.69 ± 1.2 J/K/mol | –
199.84 K | 212.52 ± 1.2 J/K/mol | –
200 K | 212.52 ± 0.83 J/K/mol | –
202.54 K | 214.35 ± 1.2 J/K/mol | –
203.91 K | 215.51 ± 1.2 J/K/mol | –
205.26 K | 216.84 ± 1.2 J/K/mol | –
206.62 K | 217.92 ± 1.2 J/K/mol | –
209.43 K | 220.42 ± 1.2 J/K/mol | –
210 K | 221.08 ± 0.91 J/K/mol | –
212.14 K | 222.5 ± 1.2 J/K/mol | –
213.5 K | 223.66 ± 1.2 J/K/mol | –
214.85 K | 224.82 ± 1.2 J/K/mol | –
216.21 K | 225.99 ± 1.2 J/K/mol | –
218.93 K | 228.56 ± 1.2 J/K/mol | –
220 K | 229.81 ± 0.91 J/K/mol | –
220.29 K | 230.06 ± 1.2 J/K/mol | –
221.64 K | 231.06 ± 1.2 J/K/mol | –
222.99 K | 232.06 ± 1.2 J/K/mol | –
224.34 K | 233.39 ± 1.2 J/K/mol | –
225.69 K | 234.72 ± 1.2 J/K/mol | –
227.04 K | 235.72 ± 1.2 J/K/mol | –
228.4 K | 237.05 ± 1.2 J/K/mol | –
229.74 K | 238.29 ± 1.2 J/K/mol | –
230 K | 238.71 ± 1 J/K/mol | –
231.18 K | 240.12 ± 1.2 J/K/mol | –
236.59 K | 245.11 ± 1.2 J/K/mol | –
237.93 K | 246.03 ± 1.3 J/K/mol | –
239.28 K | 247.27 ± 1.3 J/K/mol | –
240 K | 247.77 ± 1 J/K/mol | –
240.62 K | 248.44 ± 1.3 J/K/mol | –
241.97 K | 249.68 ± 1.3 J/K/mol | –
243.31 K | 250.76 ± 1.3 J/K/mol | –
244.65 K | 252.18 ± 1.3 J/K/mol | –
248.66 K | 256.25 ± 1.3 J/K/mol | –
250 K | 257.67 ± 1.3 J/K/mol and 257.5 ± 1 J/K/mol | –
251.33 K | 258.91 ± 1.3 J/K/mol | –
252.75 K | 260.49 ± 1.3 J/K/mol | –
254.09 K | 261.41 ± 1.3 J/K/mol | –
255.42 K | 262.82 ± 1.4 J/K/mol | –
256.75 K | 264.07 ± 1.4 J/K/mol | –
260 K | 267.48 ± 1 J/K/mol | –
260.74 K | 268.39 ± 1.4 J/K/mol | –
262.06 K | 269.56 ± 1.4 J/K/mol | –
263.38 K | 270.8 ± 1.4 J/K/mol | –
264.71 K | 272.05 ± 1.4 J/K/mol | –
266.03 K | 273.38 ± 1.4 J/K/mol | –
267.35 K | 274.54 ± 1.4 J/K/mol | –
268.67 K | 275.96 ± 1.4 J/K/mol | –
269.98 K | 276.87 ± 1.4 J/K/mol | –
270 K | 277.2 ± 1.1 J/K/mol | –
271.3 K | 278.45 ± 1.4 J/K/mol | –
272.62 K | 279.7 ± 1.5 J/K/mol | –
276.62 K | 283.69 ± 1.5 J/K/mol | –
277.92 K | 285.02 ± 1.5 J/K/mol | –
279.22 K | 286.27 ± 1.5 J/K/mol | –
280 K | 287.1 ± 1.1 J/K/mol | –
280.53 K | 287.51 ± 1.5 J/K/mol | –
281.83 K | 289.01 ± 1.5 J/K/mol | –
283.13 K | 290.09 ± 1.5 J/K/mol | –
284.43 K | 291.09 ± 1.5 J/K/mol | –
288.3 K | 295.16 ± 1.5 J/K/mol | –
289.59 K | 296.49 ± 1.6 J/K/mol | –
290 K | 296.41 ± 1.2 J/K/mol | –
290.87 K | 297.33 ± 1.6 J/K/mol | –
292.15 K | 298.24 ± 1.6 J/K/mol | –
293.43 K | 298.91 ± 1.6 J/K/mol | –
294.71 K | 299.82 ± 1.6 J/K/mol | –
298.15 K | 302.98 ± 1.2 J/K/mol | –
299.77 K | 304.06 ± 1.6 J/K/mol | –
300 K | 304.48 ± 1.2 J/K/mol | –
301.26 K | 305.47 ± 1.6 J/K/mol | –
302.92 K | 307.05 ± 1.6 J/K/mol | –
304.58 K | 308.88 ± 1.6 J/K/mol | –
306.25 K | 310.3 ± 1.6 J/K/mol | –
309.6 K | 312.87 ± 1.6 J/K/mol | –
310 K | 313.21 ± 1.2 J/K/mol | –
311.29 K | 315.62 ± 1.7 J/K/mol | –
314.7 K | 320.94 ± 1.7 J/K/mol | –
316.41 K | 322.19 ± 1.7 J/K/mol | –
318.13 K | 325.68 ± 1.7 J/K/mol | –
319.86 K | 330.17 ± 1.7 J/K/mol | –
320 K | 321.69 ± 1.2 J/K/mol | –
321.61 K | 331 ± 1.7 J/K/mol | –
327.84 K | 328.26 ± 1.2 J/K/mol | 384.38 ± 1.4 J/K/mol
330 K | – | 386.29 ± 1.4 J/K/mol
334.3 K | – | 391.36 ± 2 J/K/mol
340 K | – | 394.94 ± 1.5 J/K/mol
340.65 K | – | 394.52 ± 2 J/K/mol
347.01 K | – | 398.93 ± 2.1 J/K/mol
350 K | – | 403.25 ± 1.7 J/K/mol
351.17 K | – | 405 ± 2.1 J/K/mol
353.12 K | – | 407.24 ± 2.1 J/K/mol
355.08 K | – | 408.24 ± 2.1 J/K/mol
357.06 K | – | 409.82 ± 2.1 J/K/mol
359.07 K | – | 410.65 ± 2.1 J/K/mol
360 K | – | 411.57 ± 1.7 J/K/mol
361.08 K | – | 411.57 ± 2.1 J/K/mol
363.12 K | – | 412.65 ± 2.1 J/K/mol
365.18 K | – | 413.4 ± 2.1 J/K/mol
367.25 K | – | 414.06 ± 2.1 J/K/mol
369.35 K | – | 414.89 ± 2.1 J/K/mol
370 K | – | 414.89 ± 1.7 J/K/mol
371.48 K | – | 415.81 ± 2.2 J/K/mol
